# Reference: US20260272878A1, “ADAR1 INHIBITORS AND USES THEREOF” (THE WISTAR INSTITUTE OF ANATOMY AND BIOLOGY, priority 2023, published 2026)
# “Also recorded” adds a separate entry of the source.
# Tests used:
# HuR = HuR (Homo sapiens, UniProt Q15717); experiment: SPR binding to negative control protein HuR
# From the text: (§1) FIGS. 5A-5D show Biacore SPR analysis for binding of ADAR1i to ADAR1p110. (FIG. 5A) SPR analysis for binding kinetics of 8 compounds to ADAR1p110-WT. ADAR1 inhibition positive (ADAR1i-13, ADAR1i-120, ADAR1i-124) and negative compounds. (FIG. 5B, FIG. 5C) […] of SPR analysis for binding of ADAR1i-13 and ADAR1i-124 to ADAR1p110-WT and ADAR1p110-E912A as well as negative control proteins, GAPDH and HuR, are shown. […] ADAR1-E912, equivalent of ADAR2 E396, is located in the catalytic center.
# ADAR2 = biological target: T1, ADAR2 (Homo sapiens, UniProt P78563); experiment: Binding to ADAR2 (not shown)
# T1 sequence (P78563 1-741): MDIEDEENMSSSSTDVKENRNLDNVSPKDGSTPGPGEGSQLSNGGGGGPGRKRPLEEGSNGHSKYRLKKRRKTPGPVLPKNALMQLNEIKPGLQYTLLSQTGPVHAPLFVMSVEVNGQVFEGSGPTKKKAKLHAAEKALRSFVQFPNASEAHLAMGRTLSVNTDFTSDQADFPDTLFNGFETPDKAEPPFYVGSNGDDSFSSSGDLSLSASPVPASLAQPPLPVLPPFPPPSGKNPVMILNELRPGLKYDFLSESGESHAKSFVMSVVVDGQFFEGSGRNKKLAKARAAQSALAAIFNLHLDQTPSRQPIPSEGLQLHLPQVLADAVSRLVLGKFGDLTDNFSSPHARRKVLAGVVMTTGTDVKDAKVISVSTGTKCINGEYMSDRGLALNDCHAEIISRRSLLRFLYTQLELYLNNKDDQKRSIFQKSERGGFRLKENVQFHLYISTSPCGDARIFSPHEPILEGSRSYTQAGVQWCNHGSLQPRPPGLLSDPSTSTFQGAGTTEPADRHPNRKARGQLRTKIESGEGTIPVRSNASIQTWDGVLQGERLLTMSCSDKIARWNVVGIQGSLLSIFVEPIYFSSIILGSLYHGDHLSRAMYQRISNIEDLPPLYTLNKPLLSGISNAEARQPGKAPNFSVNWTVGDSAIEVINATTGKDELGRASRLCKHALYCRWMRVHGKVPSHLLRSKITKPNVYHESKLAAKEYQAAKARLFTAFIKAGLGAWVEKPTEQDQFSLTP
# GAPDH = GAPDH (Homo sapiens, UniProt P04406); experiment: SPR binding to negative control protein GAPDH
# From the text: as §1
# ADAR1p110-E912A = ADAR1p110-E912A (Homo sapiens, UniProt P55265, E912A); experiment: Biacore SPR binding to ADAR1p110-E912A mutant
# From the text: as §1
# No complete 3-D structure of ADAR1 is currently available. […] The glutamate E912 and E396 in ADAR1 and ADAR2, respectively, plays an important proton transfer function during hydrolytic deamination reaction (42, 43).
# [1] = Half-life in culture media by loss of cancer cell killing activity; assay type: in vitro ADME; details: determined by loss of cancer cell killing activity (data not shown), read-out: t1/2 in the culture media (converted)
# From the text: We will modify ADAR1i-124 and derive ADAR1i-124 analogs with higher potency (higher affinity binding and lower IC50) ready to be tested for animal model studies (next section).
# mouse melanoma = experiment: Subcutaneous mouse melanoma growth in B6 black mice; assay type: in vivo; details: 4 treatments starting at Day 8, versus vehicle
# From the text: We inoculated mouse melanoma cells subcutaneously in B6 black mice. Then, starting at Day 8, we treated mice for 4 treatments of either vehicle only or ADAR1i-124 (FIG. 11A).
# HeLa cells = experiment: Cell death mechanism, Annexin V apoptosis marker, HeLa; assay type: cell-based, human
# From the text: (§2) FIGS. 10A-10C show ADAR1i-124 kills cancer cells via different cell death mechanism. (FIG. 10A) Differential expression of ADAR1p150 and ADAR1p110 in cancer cells. […] Annexin V and pMLKL were used as apoptosis and necroptosis markers, respectively. At least 200 cells were examined. Data: mean±SD (n=3). Significant differences were identified by two tailed Student's t-tests: *P<0.05, n.s., not significant. […] We plan to evaluate ADAR1 inhibitors in vivo in mouse tumor model systems by using these mouse cancer cell lines.
# Thus, ADAR1i-124 has the potential to act as a “two birds with one stone” cancer therapeutic.
# HSG2 = experiment: Dose-dependent killing, HSG2; assay type: cell-based; details: mouse non-ALT cancer cells
# Experimental: (§3) FIGS. 9A-9C show dose-dependent killing of cancer cells and activation of IFN signaling. […] YUMM1.7 (FIG. 9B) and HGS2 cells (FIG. 9C) were treated with ADAR1i-124 at 10 μM (12 hrs). RNA samples were analyzed by qRT-PCR to monitor ISG expression levels. Data: mean±SD (n=3). Significant differences were identified by two-tailed Student's t-tests: ***P<0.001.
# [2] = system: mouse melanoma and ovarian cancer cells; experiment: Killing of mouse melanoma and ovarian cancer cells (FIG. 10C); assay type: cell-based
# From the text: as §2
# [3] = system: WM3000 PDX melanoma cell line; experiment: Dose-dependent killing, WM3000; assay type: cell-based; details: human PDX melanoma cell line
# Experimental: as §3
# Treatments and analysis. The efficacy of ADAR1i alone or combining with αPD1 Ab for suppression of tumor growth will be assessed as described in the previous section (Aim 2-1). We have at our disposal the largest collection (>500) of clinically and genetically annotated melanoma PDX. […] We will use the human melanoma cell lines/PDXs in subcutaneous tumor assays in the hu-BLT mice. Human melanomas will be established in the hu-BLT mice and randomized into 4 treatment groups (n=5 per group): 1) ADAR1i alone, 2) αPD-1 Ab alone, 3) combination ADAR1i/αPD-1, 4) control IgG. Tumor volumes and overall survival will be determined as described in the previous section (Aim 2-1). Tumors will be biopsied and blood collected at interval periods (at EOT, e.g. 7 days, at TTR, and at EOS) and analyzed for hallmark melanoma features as above. […]
# Z-RNA = Z-RNA formation; assay type: cell-based
# From the text: FIGS. 7A-7C show analysis of ADAR1i-13 and analogs. […] IC50 values determined by dose-dependent in vitro editing assay are shown for ADAR1 inhibition positive compounds. […] Dumbbell-shaped dsRNA has been reported to form Z-RNA conformation and act as a strong IFN signaling activation triggers. ADAR1p150 mediated A-to-I editing suppresses Z-RNA structure transition and activation of IFN signaling.
# Chain of ADAR1p110-E912A (P55265 296-1226 E912A): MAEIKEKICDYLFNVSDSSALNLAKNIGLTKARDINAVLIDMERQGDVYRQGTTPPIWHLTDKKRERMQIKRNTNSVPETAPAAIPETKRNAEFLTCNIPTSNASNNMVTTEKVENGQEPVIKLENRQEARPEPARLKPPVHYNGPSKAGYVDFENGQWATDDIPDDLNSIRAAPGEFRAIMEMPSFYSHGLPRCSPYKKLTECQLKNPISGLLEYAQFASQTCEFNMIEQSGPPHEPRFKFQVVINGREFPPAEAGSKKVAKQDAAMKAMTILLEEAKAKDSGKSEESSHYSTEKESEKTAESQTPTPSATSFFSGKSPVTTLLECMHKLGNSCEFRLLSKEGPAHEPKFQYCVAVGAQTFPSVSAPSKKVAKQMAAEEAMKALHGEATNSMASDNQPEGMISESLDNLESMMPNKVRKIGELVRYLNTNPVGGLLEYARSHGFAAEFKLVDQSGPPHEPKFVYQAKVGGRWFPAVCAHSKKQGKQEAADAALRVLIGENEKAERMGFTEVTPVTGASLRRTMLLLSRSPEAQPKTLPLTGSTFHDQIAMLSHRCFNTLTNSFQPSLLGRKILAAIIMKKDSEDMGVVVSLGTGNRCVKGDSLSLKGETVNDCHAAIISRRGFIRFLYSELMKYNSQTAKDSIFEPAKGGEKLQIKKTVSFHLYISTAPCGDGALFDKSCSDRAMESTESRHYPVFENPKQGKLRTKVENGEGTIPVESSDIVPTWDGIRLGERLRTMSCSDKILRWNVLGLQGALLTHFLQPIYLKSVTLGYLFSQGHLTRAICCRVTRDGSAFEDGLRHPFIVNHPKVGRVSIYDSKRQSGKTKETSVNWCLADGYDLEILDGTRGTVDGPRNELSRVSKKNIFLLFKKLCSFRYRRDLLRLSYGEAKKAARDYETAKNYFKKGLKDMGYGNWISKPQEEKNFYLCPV
# Chain of GAPDH (P04406 whole entry, species assumed): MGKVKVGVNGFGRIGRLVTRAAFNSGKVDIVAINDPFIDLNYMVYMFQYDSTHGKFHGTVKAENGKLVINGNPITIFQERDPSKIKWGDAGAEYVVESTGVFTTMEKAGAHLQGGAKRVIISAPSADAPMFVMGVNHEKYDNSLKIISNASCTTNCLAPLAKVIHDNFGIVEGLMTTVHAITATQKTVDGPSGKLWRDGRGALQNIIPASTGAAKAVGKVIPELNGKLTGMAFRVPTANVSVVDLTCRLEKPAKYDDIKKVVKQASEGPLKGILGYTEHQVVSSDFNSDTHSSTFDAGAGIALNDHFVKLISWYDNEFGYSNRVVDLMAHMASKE
# Chain of HuR (Q15717 whole entry, species assumed): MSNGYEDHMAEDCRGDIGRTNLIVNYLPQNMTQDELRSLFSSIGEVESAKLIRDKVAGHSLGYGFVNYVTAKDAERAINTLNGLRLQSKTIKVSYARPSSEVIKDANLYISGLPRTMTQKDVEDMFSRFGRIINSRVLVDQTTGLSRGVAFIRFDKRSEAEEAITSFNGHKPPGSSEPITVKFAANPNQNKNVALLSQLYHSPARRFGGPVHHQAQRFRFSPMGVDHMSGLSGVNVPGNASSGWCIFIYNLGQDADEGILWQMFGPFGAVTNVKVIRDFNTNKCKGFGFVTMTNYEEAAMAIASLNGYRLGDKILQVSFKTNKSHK
Structure (SMILES),Binding to HuR (HuR),Binding to ADAR2 (ADAR2),Binding to GAPDH (GAPDH),Binding to ADAR1p110-E912A mutant (ADAR1p110-E912A),half-life [1] [h],Growth of mouse melanomas in vivo (mouse melanoma),Induction of apoptosis (HeLa cells),Killing of HSG2 cells (HSG2),Killing of mouse melanoma and ovarian cancer cells [2],Killing of WM3000 cells [3],Z-RNA formation (Z-RNA)
"N#Cc1ccc(NC(=O)c2sc3ccccc3c2Cl)cc1 [ADAR1i-13, 3-chloro-N-(4-cyanophenyl)-1-benzothiophene-2-carboxamide]",did not bind,bound also to ADAR2,did not bind,did not bind,,,,,,,
N#Cc1ccc(NC(=O)c2c(Cl)c3ccccc3n2CO)cc1 [ADAR1i-124],did not bind,bound also to ADAR2,did not bind,a binding kinetics different from that with ADAR1p110-WT,~12,significantly suppressed growth of mouse melanomas,induced apoptosis; also recorded: killed via apoptosis,dose-dependently killed,dose-dependently and efficiently killed,"killed one PDX melanoma cell line, WM3000, in a dose-dependent manner; also recorded: dose-dependently killed",induces formation of Z-RNAs
